According to ChEMBL document CHEMBL1201862, “PubChem BioAssay data set” (2004):
Active and inactive are the calls of the source.

Assays:
[1] = target: Voltage-gated inwardly rectifying potassium channel KCNH2 (Homo sapiens, UniProt Q12809); conditions: Potency;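 also: confirmatory quantitative high-throughput screen measuring inhibition of hERG channel activity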
[2] = target: Dual specificity tyrosine-phosphorylation-regulated kinase 1A (Rattus norvegicus, UniProt Q63470); type: biochemical, Homo sapiens
Aminopeptidase N = target: T1, Aminopeptidase N (Plasmodium falciparum FcB1/Columbia, UniProt O96935); experiment: P. falciparum M1AAP inhibitors, biochemical, fluorogenic H-Leu-NHMec substrate, 1536-well (AID 1445); design: species or system Plasmodium falciparum 3D7, 3D7
T1 sequence (O96935 whole entry): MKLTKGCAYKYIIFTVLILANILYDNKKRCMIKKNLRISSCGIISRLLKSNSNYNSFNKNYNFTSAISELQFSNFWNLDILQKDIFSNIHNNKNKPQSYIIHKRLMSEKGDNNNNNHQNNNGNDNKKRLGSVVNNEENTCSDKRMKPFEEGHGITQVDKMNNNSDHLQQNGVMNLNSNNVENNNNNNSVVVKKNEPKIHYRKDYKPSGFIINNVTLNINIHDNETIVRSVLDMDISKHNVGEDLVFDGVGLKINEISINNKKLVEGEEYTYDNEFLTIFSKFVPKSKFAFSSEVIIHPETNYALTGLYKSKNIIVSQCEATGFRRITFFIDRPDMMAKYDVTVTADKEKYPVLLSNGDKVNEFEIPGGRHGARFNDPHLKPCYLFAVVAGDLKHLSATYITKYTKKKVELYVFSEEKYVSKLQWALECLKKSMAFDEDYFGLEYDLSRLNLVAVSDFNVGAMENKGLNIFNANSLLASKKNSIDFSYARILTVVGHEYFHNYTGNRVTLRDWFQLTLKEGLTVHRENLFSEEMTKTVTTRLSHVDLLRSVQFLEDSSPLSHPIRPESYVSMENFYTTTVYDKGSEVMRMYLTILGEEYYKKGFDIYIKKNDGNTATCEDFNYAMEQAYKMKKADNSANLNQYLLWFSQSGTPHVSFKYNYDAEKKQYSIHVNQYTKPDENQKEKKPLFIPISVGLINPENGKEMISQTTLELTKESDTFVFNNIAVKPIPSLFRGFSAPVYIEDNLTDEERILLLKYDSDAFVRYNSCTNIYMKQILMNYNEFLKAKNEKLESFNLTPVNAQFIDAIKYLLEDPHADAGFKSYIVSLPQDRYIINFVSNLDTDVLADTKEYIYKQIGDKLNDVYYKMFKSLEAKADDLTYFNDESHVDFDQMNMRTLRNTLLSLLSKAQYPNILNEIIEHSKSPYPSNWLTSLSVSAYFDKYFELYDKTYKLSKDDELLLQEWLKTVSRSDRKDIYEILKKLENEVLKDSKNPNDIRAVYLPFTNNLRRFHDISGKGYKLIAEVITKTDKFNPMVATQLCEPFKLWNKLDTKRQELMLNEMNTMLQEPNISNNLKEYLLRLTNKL

[3] = NIH-3T3 fibroblast cytotoxicity, dose response, cytotoxicity control, cell-based, fluorescence, Alamar Blue, secondary assay (AID 2327); type: functional;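 also: NIH-3T3 mouse fibroblasts cultured with fluconazole at 8 µg/mL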
[4] = C. albicans growth with fluconazole, confirmation, fluorescence, retest (AID 2467); type: functional, cell-based
[5] = target: T2, Serine/threonine-protein phosphatase (Candida dubliniensis (strain CD36 / CBS 7987 / NCPF 3949 / NRRLY-17841) (Yeast), UniProt B9W6M3); experiment: calcineurin pathway inhibitors in yeast reporter, dose response, S. cerevisiae, CDRE-lacZ, luminescence, secondary (AID 2388); type: functional, cell-based;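 also: yeast reporter cells carrying a calcineurin-responsive lacZ construct stimulated with calcium chloride; luminescent beta-galactosidase reporter signal in whole cells rather than isolated phosphatase activity; potency for inhibition where a drop in reporter signal means calcineurin blockade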
T2 sequence (B9W6M3 whole entry): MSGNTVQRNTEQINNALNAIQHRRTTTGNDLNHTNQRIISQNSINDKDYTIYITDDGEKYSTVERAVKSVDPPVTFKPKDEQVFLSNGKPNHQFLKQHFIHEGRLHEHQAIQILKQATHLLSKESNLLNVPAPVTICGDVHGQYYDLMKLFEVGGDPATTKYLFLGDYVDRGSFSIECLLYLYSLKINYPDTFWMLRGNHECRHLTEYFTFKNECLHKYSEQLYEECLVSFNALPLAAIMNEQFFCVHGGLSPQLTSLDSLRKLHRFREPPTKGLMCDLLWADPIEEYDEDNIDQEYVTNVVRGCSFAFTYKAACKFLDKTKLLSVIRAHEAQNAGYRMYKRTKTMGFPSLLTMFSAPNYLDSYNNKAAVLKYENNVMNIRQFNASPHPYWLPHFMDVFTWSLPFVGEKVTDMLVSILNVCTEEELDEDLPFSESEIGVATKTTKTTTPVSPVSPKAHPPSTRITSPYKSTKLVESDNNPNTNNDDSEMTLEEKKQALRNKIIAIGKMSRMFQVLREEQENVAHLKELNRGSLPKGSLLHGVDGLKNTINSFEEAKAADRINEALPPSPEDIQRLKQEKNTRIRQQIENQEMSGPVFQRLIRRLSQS

[6] = target: ATP-dependent molecular chaperone HSP82 (Candida albicans (strain WO-1) (Yeast), UniProt C4YTQ8); experiment: loss of DOC-induced GRE-beta-galactosidase reporter signal, dose response, Hsp90 inhibitor project, S. cerevisiae, luminescence (AID 2400); type: functional, cell-based;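 also: beta-galactosidase luminescence from glucocorticoid response element reporter as proxy for Hsp90 function; inhibitor potency where signal loss means Hsp90 inhibition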
Mu-type opioid receptor = Mu-type opioid receptor (Homo sapiens, UniProt P35372); type: functional, cell-based;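 also: U2OS cells with beta-arrestin recruitment to OPRM1 by beta-gal complementation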
[7] = target: 5-hydroxytryptamine receptor 2A (Mus musculus, UniProt P35363); type: functional, cell-based;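 also: CHO-K1 cells with tagged receptor and beta-arrestin; agonist potency measured as compound-induced activation of the receptor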
[8] = target: T3, Heat shock factor protein 1 (Mus musculus, UniProt P38532); experiment: inhibition of MG132-induced HSE-luciferase signal, confirmation, cell-based, NIH3T3, luminescence, dose retest (AID 2382); type: functional;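 also: NIH3T3 fibroblasts with HSF1-driven luciferase reporter stressed by proteasome inhibitor MG132; luminescence from HSF1-driven luciferase expression after 8 hours of MG132 stress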
T3 sequence (P38532 whole entry): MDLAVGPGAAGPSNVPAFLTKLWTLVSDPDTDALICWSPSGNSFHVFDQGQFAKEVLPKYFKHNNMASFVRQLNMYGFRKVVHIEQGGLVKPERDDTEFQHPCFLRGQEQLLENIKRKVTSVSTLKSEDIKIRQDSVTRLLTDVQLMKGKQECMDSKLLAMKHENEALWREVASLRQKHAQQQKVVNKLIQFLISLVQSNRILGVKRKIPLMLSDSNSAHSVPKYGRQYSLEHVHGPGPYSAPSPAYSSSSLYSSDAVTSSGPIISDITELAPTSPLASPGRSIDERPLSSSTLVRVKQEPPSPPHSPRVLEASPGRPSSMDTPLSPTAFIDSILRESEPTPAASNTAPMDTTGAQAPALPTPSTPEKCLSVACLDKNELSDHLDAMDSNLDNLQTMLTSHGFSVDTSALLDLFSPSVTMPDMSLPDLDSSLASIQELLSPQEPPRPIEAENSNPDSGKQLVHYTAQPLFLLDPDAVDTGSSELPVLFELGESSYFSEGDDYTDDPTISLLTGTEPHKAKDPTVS

Escherichia coli = experiment: microbe, parasite or virus in culture
[9] = target: T4, Replicative DNA helicase DnaB (Mycobacterium tuberculosis, UniProt P9WMR3); experiment: DnaB intein splicing inhibitors, dose response, biochemical, cell-free fluorescence (AID 449749); type: functional
T4 sequence (P9WMR3 whole entry): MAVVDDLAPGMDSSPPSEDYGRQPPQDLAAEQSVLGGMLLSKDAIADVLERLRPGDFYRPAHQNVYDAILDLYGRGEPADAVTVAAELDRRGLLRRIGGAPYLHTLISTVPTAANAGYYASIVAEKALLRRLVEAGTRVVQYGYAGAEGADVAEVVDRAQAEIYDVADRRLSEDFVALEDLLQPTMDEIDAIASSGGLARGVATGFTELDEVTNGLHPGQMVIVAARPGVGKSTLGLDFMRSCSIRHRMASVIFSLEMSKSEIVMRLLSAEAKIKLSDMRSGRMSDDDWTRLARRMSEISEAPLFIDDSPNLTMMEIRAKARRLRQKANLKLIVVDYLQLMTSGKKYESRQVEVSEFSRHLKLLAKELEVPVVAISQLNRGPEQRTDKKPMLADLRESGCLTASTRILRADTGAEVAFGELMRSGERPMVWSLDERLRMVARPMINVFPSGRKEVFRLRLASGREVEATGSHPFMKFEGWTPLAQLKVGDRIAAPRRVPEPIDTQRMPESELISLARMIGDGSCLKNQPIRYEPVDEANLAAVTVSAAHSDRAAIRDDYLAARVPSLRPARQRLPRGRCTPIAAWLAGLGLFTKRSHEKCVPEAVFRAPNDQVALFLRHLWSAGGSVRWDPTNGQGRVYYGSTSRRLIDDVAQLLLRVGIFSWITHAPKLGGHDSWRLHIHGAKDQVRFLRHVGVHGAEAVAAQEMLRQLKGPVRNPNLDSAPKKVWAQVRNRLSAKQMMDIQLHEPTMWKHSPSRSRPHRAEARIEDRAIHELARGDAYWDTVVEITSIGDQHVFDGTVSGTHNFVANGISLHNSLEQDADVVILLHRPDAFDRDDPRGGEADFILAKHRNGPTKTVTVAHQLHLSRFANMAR

Vero [10] = experiment: cells; type: functional, cell-based; conditions: Chlorocebus sabaeus
Protein RecA = target: T5, Protein RecA (Mycobacterium tuberculosis, UniProt P9WHJ3); experiment: Fluorescence Cell-Free Homogeneous Dose Retest to Identify Inhibitors of RecA-Intein Splicing Activity. [Related pubchem assays (depositor defined):AID2097, AID2223, AID489010, AID492950]; type: functional
T5 sequence (P9WHJ3 whole entry): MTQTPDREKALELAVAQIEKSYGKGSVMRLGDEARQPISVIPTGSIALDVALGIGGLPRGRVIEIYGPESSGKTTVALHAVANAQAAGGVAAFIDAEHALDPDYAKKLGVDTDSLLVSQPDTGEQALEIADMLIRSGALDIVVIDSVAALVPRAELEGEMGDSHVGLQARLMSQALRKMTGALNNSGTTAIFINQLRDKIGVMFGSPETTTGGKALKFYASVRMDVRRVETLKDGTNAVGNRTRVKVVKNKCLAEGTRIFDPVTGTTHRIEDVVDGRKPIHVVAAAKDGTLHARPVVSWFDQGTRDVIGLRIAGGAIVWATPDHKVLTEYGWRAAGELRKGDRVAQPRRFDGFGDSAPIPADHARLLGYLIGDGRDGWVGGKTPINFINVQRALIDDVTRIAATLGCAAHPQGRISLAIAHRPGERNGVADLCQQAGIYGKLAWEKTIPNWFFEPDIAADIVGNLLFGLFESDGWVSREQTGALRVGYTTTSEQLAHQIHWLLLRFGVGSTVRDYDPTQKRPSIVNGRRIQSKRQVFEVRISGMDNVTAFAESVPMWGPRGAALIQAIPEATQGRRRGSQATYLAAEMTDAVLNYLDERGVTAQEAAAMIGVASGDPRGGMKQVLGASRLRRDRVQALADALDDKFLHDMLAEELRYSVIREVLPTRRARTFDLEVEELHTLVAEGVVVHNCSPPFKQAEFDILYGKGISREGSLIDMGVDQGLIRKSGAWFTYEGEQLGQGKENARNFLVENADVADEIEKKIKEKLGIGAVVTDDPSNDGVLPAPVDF

Vero [11] = experiment: cells; type: functional; conditions: Chlorocebus sabaeus
Paired box protein Pax-8 = Paired box protein Pax-8 (Homo sapiens, UniProt Q06710); experiment: inhibitors of PAX8-driven TPO luciferase reporter, dose response, RMG-I cells, cherry-pick (AID 687027); type: functional, cell-based;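 also: luciferase reporter driven by Pax8 target thyroperoxidase promoter measured by SteadyGlo luminescence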
[12] = non-specific cell cytotoxicity, dose response, cytotoxicity control for PAX8 inhibitor project, plate reader, dry powder samples (AID 743021); type: functional, cell-based
[13] = test system: Streptococcus sp. 'group A'; experiment: growth inhibition of control SK(-) GAS strain, dose response, counter-screen for streptokinase expression inhibitor project, luminescence, kanamycin, BacTiterGlo, confirmation (AID 1900); type: functional, organism-based
Streptococcus = experiment: Group A Streptococcus viability loss, dose response, counter-screen for streptokinase expression inhibitor project, luminescence, BacTiterGlo (AID 1915); type: functional, organism-based;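 also: potency for reduction of bacterial viability or growth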
INS1 = experiment: beta cell apoptosis inhibitors, cytokine rescue, dose response, luminescence, retest (AID 449756); type: functional, cell-based; conditions: Rattus norvegicus;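 also: cell death triggered by IL-1 beta plus TNF-alpha plus IFN-gamma mixture; protective hits raise ATP signal compared with cytokine alone wells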

Sequence of Voltage-gated inwardly rectifying potassium channel KCNH2 (Q12809 whole entry): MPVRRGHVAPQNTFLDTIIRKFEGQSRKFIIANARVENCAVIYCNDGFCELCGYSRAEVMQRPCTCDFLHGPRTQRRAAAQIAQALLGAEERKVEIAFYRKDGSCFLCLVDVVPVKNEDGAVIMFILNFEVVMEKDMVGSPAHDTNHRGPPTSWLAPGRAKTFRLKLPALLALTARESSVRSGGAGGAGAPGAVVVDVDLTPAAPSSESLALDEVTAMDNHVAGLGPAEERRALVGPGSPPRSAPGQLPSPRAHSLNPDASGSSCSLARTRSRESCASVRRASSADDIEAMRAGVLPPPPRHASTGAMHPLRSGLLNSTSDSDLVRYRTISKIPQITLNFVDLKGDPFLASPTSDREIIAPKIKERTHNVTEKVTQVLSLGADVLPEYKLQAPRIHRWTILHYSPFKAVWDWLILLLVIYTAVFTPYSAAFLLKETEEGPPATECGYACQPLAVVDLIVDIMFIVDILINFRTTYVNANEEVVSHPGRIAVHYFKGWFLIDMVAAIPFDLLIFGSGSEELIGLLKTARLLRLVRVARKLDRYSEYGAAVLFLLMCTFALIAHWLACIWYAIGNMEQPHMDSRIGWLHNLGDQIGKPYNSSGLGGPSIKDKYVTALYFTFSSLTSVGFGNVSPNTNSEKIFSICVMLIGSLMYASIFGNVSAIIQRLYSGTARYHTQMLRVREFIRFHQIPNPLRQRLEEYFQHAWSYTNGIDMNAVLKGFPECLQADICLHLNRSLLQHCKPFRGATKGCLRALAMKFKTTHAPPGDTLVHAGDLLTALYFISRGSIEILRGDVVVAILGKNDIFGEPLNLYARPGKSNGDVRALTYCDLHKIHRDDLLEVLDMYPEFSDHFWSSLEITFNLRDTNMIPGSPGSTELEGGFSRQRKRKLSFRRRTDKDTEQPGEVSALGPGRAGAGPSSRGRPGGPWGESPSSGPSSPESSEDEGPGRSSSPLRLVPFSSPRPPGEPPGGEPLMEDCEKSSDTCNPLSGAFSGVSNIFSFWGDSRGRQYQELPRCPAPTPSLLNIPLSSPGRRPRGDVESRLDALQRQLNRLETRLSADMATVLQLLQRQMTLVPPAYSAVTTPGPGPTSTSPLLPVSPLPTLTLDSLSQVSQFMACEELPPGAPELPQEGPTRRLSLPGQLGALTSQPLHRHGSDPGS
Sequence of ATP-dependent molecular chaperone HSP82 (C4YTQ8 whole entry): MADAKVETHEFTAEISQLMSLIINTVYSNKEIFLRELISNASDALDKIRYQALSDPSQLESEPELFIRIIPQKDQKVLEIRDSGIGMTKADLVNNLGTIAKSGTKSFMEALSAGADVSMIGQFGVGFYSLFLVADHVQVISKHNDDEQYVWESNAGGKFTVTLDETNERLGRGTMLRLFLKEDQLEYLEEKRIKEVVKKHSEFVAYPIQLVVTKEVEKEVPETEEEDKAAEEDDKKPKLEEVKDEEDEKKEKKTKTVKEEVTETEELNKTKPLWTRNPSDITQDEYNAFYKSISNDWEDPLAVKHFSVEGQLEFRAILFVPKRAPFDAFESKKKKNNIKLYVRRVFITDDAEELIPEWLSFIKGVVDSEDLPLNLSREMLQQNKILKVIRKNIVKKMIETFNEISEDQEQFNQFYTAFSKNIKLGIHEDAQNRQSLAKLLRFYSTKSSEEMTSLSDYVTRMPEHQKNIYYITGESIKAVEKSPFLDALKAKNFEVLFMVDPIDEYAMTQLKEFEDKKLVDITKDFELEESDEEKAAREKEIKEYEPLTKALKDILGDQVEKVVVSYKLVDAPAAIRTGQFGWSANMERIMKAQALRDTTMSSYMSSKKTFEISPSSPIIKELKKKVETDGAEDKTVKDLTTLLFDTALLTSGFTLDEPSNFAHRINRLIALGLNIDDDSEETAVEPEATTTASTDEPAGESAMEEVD
Sequence of Mu-type opioid receptor (P35372 whole entry): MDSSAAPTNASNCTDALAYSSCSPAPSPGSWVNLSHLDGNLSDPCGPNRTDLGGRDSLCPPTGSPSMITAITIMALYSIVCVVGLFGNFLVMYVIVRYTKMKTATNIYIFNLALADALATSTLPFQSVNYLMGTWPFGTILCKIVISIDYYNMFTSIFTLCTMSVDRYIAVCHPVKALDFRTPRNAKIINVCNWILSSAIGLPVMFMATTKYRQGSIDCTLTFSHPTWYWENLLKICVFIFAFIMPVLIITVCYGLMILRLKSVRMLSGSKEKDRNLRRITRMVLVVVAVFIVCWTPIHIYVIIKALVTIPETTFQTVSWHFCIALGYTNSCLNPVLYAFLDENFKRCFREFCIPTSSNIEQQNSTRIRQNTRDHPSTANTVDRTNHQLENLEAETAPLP
Sequence of 5-hydroxytryptamine receptor 2A (P35363 whole entry): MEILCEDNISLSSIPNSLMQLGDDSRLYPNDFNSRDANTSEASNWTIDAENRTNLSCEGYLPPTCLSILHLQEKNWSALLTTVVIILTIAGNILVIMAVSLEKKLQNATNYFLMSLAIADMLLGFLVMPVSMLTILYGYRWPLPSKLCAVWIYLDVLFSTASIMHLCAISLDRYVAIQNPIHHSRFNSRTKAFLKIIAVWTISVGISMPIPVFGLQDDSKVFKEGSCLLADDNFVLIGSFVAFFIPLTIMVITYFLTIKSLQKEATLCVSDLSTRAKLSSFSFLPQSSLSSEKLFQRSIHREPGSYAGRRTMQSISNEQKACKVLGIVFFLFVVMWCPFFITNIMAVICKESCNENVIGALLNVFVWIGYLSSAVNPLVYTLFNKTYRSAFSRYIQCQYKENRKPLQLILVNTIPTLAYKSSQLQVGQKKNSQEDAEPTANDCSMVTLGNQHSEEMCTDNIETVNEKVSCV
Sequence of Paired box protein Pax-8 (Q06710 whole entry): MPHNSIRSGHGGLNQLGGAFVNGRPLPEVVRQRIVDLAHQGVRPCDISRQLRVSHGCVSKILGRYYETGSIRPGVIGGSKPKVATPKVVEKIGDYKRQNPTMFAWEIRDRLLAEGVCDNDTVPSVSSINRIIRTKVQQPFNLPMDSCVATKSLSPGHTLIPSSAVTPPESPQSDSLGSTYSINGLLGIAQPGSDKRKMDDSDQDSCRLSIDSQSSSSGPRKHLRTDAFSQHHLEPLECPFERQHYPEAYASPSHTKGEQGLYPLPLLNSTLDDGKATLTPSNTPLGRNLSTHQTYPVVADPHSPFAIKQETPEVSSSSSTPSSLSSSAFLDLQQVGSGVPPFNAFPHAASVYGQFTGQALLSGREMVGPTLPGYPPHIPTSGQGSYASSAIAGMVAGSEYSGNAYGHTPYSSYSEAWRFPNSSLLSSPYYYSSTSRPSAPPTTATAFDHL

Structure (SMILES): OCc1c[nH]cn1
- AC50 [1]: 1.78 µM (inconclusive)

Structure (SMILES): CCCC(=O)Nc1nc(-c2ccc3c(c2)OCCO3)cs1
- AC50 [2]: 8.75 µM (active)

Structure (SMILES): Cc1cc(-c2ccc(C(=O)O)s2)cnc1N
- IC50 (Aminopeptidase N): 58.9 µM (active)
- AC50 [2]: 4.79 µM (active)

Structure (SMILES): COc1cccc(-c2nc(NC(C)C)c3ccccc3n2)c1O
- EC50 [3]: > 160 µM (inactive)
- EC50 [4]: 4.42 µM (active)
- EC50 [5]: > 180 µM (inactive)
- EC50 [6]: 54.5 µM (active)
- EC50 (Mu-type opioid receptor): 92.5 µM (inactive)
- EC50 [7]: 8.51 µM (active)

Structure (SMILES): CC(C)OC(=O)Cn1c(=O)oc2ccccc21
- EC50 [8]: > 195 µM (not active)
- AC50 (Escherichia coli): 21.8 µM (active)

Structure (SMILES): Cc1cccc(N(Cc2cc(O)nc3ccccc23)C(=O)CCl)c1
- AC50 [9]: 10.5 µM (active)
- IC50 (Vero [10]): > 25 µM (active)
- EC50 (Protein RecA): 1.67 µM (active)
- CC50 (Vero [11]): 5.83 µM (active)
- AC50 (Paired box protein Pax-8): 3.93 µM (active)
- AC50 [12]: 24.9 µM (active)

Structure (SMILES): CC(Oc1cccnc1[N+](=O)[O-])C(=O)N1CCc2ccccc21 (stereo not given)
- AC50 (Escherichia coli): 22.2 µM (active)

Structure (SMILES): CC(=O)Nc1ccc(NS(=O)(=O)c2ccc3ccccc3c2)cc1
- AC50 (Escherichia coli): 27.4 µM (active)

Structure (SMILES): Cc1cc(N/N=C/c2c(O)ccc3ccccc23)nc(-c2ccccc2O)n1
- EC50 [3]: > 160 µM (inactive)
- EC50 [13]: 0.235 µM (active)
- EC50 [4]: 2.07 µM (active)
- EC50 [5]: > 180 µM (inactive)
- EC50 (Streptococcus): 0.425 µM (active)
- AC50 (INS1): 1.69 µM (active)
- EC50 [6]: 38.8 µM (active)

Structure (SMILES): COc1cc(N)c(Cl)cc1C(=O)OCCN1CCCCC1
- AC50 [1]: 25.1 µM (inconclusive)

Structure (SMILES): O=C(O)c1cc(/N=C/c2c(O)oc3ccccc3c2=O)ccc1O
- AC50 [2]: 32.5 µM (active)

Structure (SMILES): CC(C)c1ccccc1 [ISOPROPYLBENZENE]
- AC50 [1]: 1.58 µM (inconclusive)
